Test results taken from patent publication US6432939B1, “17a-hydroxy-4-androstene-3-one and derivatives thereof” (priority 1999, dated 2002).

Assays:
Sertoli cells = assay: inhibin-B secretion by Sertoli cells (inhibin-B dimer assay, Serotec); format: cell-based, Wistar rats
Method: The in-vitro stimulating effect on inhibin-B generation was measured using inhibin-B dimer assays by Serotec, Oxford, UK. […] The difference between the released inhibin-B quantity with and without the test substance expresses the efficacy of the respective test substance.
The substances were tested for their stimulating effect on inhibin-B secretion in an in-vitro model using Sertoli cells originating from Wistar rats and cultivated for up to 4 days.
Wistar rats that were 18 days old were killed using CO2; their testicles were collected and mechanically chopped up using a surgical knife. The resulting cell pulp was enzymatically disintegrated with collagenase II, hyaluronidase, and DNase using the following method: The cell pulp was digested for 15 minutes at 37° C. in 20 ml of Dulbecco's Modified Essential Medium (DMEM) containing 20 mg of collagenase II; subsequently, it was sedimented for 7 minutes at room temperature. The supernatant was discarded. The remaining pellet was resuspended in DMEM, then sedimented again for 7 minutes. The next steps were a second decomposition for 30 minutes at 37° C. in 20 ml of DMEM containing 40 mg of collagenase II, 40 mg of hyaluronidase, and 0.1 mg of DNase, and a centrifugation step at 500 rpm. After washing in DMEM without additives and another centrifugation step, the pellet was a third time enzymatically disintegrated for 30 minutes at 37° C. in 20 ml of DMEM containing 40 mg of collagenase II, 40 mg of hyaluronidase and 0.1 mg of DNase, then centrifuged at 1,000 rpm. The pellet was then resuspended, washed once in DMEM without additives, and finally sublimated with 100 U/ml of penicillin, 100 μg/ml of streptomycin, 5 μg/ml of human transferrin, 2 μg/ml of insulin, 50 ng/ml of vitamin A (all from Sigma Co.), 200 ng/ml of vitamin E (Merck Co.), and 3 mg/ml of cytosine arabinoside (Sigma Co.) (DMEM-Z) and sowed in 24-well microtiter plates. After 48 hours, the cultivated cells were given hypotonic treatment using 20 mM of Tris-HCl (pH 7.4) to remove residual gametes, then the medium was changed into DMEM-Z.
1 ml of biological sample containing 10^6 Sertoli cells in 990 ml of DMEM-Z and test substances at a concentration range from 0.1 nM to 1 μM, each dissolved in 10 μl of absolute ethanol (1% w/v of the total batch) was incubated for 48 hours at 34° C. and 5% CO2. The culture supernatant was then decanted from the cells, frozen at −20° C. and kept until the inhibin-B level was determined.
0.1 ml of culture supernatant was mixed with 0.05 ml of SDS of the inhibin-B assay (Serotec, Oxford, UK) in 1.8 ml Eppendorf reaction vessels and heated for 3 minutes to 100° C. After the batch had cooled down, 0.1 ml of assay diluent and 0.05 ml of a 6% H2O2 solution were added, intermixed, then incubated for 30 minutes at room temperature.
80 ml of the above reaction mixture and 80 ml of the 7 inhibin-B standards for creating a calibration curve contained in the assay were pipetted into the wells of the microtiter plate contained in the assay and allowed to incubate at room temperature overnight. Finally the wells were washed 3 times with an inhibin washing buffer.
The content of the alkaline phosphatase-conjugated antibody against human inhibin-B contained in the assay was taken up in 6 ml of assay diluent, and 0.05 ml of this solution were pipetted into the wells and incubated for 3 hours at room temperature. […]

[1] = test system: epididymal and prostatic 5α-reductase; settings: Monsalve 1977; Starka 1989; cited from earlier work
FSH levels in the plasma = settings: depending on its dose; Bicikova 1993; cited from earlier work

| SMILES | inhibin-B secretion after adding steroids from natural sources (Sertoli cells; Sertoli cell culture) | inhibin-B levels expressed from the culture supernatant as compared to the control tests (Sertoli cells; Sertoli cell culture, incubation time of 44 and 52 hours, FIG. 2 (EpiT 1 uM)) | increase of inhibin-B levels: concentration range of particularly striking effect (Sertoli cells; epitestosterone concentrations in the range from 10 nM to 1 pM) | inhibition of epididymal and prostatic 5α-reductase [1] | effect on FSH levels in the plasma (FSH levels in the plasma) |
| --- | --- | --- | --- | --- | --- |
| C[C@]12CCC(=O)C[C@@H]1CC[C@@H]1[C@@H]2CC[C@]2(C)[C@@H](O)CC[C@@H]12 [dihydrotestosterone] | not influenced |  |  |  |  |
| C[C@]12CC[C@H]3[C@@H](CCC4=CC(=O)CC[C@@]43C)[C@@H]1CC[C@H]2O [17α-hydroxy-4-androstene-3-one] |  | significantly increased | particularly striking | inhibits | either an inhibiting or an increasing effect |
| C[C@]12CC[C@H]3[C@@H](CCC4=CC(=O)CC[C@@]43C)[C@@H]1CC[C@@H]2O [testosterone] | not influenced |  |  |  |  |
| CC(=O)[C@H]1CC[C@H]2[C@@H]3CCC4=CC(=O)CC[C@]4(C)[C@H]3CC[C@]12C [progesterone] | not influenced |  |  |  |  |
